From patent US20050228180A1, “Alpha, omega-dicarboximide derivatives as useful uro-selective a1a adrenoceptor blockers” (priority 2002, published 2005) come the findings set out here.

The structures appear in SMILES notation. Structures can show the parent of a compound that is named as a salt. Some results are limits rather than exact numbers.

One series relates to conscious beagle dogs. Kind of series: In vivo uroselectivity study: phenylephrine response on MAP and IUP. As to conditions: 3 μg/kg p.o. Also noted: species or system dog. The text has this:
In order to assess the uroselectivity in vivo, the effects of these compounds were studied on mean arterial pressure (MAP) and intraurethral pressure (UP) in conscious beagle dogs as per the method of Brune et al. (Pharmacol., 1996, 53:356). Briefly, male dogs were instrumented for chronic continuous measurement of arterial blood pressure by implanting a telemetry transmitter (TL11M2-D70-PCT, Data Sci. International, St. Paul, Minn. USA) into the femoral artery, two weeks prior to the study. During the recovery period, the animal was acclimatized to stay in the sling restraint. On the day of testing, overnight fasted animal was placed in the sling restraint. A Swan-Ganz. Balloon tipped catheter was introduced into the urethra at the level of prostate and the balloon was inflated (Brune. et. al. 1996). After recording the base line readings, effect of 16 μg/kg, phenylephrine (i.v.) on MAP and IUP was recorded. The response of phenylephrine to MAP and […] were recorded at 0.5, 1, 2, 3, 4, 6, 9 and 24 hours after the oral administration of vehicle or the test drug. The changes in MAP were recorded on line using Dataquest Software (Data Sci. International, St. Paul, Minn. USA). The change in phenylephrine response on […] administration after the test drug administration was calculated as percent change of that of control values. Area under curve was calculated, and the ratio of the values for MAP and IUP was used for calculating the uroselectivity (Table III).

For a further series, the target named is T1, α1A adrenoceptor (Rattus norvegicus, UniProt P43140).
T1 construct: from tissue; host or cells: rat submaxillary gland membranes
T1 sequence (P43140 1-466): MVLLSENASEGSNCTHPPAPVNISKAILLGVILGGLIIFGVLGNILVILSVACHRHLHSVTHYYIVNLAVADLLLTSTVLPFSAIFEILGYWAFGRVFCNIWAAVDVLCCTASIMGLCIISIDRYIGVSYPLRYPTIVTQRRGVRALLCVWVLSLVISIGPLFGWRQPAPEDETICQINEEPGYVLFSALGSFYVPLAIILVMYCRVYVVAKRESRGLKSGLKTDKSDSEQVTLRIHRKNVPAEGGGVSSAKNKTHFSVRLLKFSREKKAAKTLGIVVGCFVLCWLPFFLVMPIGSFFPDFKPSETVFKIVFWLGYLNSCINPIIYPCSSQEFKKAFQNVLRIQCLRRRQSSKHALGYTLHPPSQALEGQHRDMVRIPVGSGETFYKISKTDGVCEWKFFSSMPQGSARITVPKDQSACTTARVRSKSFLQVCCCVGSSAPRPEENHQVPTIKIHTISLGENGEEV
The series is described as follows: Radioligand binding, [3H] prazosin displacement, rat submaxillary membranes. As to conditions: for Ki: [3H] prazosin displacement, rat submaxillary membranes, read-out: Affinity (Ki) α1A (Rat Submaxillary); for α1B/α1A: ratio of binding affinities, rat liver / rat submaxillary. Put shortly:
(§1)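 Rat membranes (submaxillary for α1A, liver for α1B; 150-250 μg protein) incubated with [3H]prazosin and compound in Tris 50 mM/EDTA 5 mM pH 7.4, 1 h at 24-25° C. Nonspecific binding with 300 nM prazosin; filtration, counting; Ki via Cheng–Prusoff.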

The next series concerns the target T2, α1B adrenoceptor (Rattus norvegicus, UniProt P15823).
T2 construct: from tissue; host or cells: rat liver membranes
T2 sequence (P15823 1-515): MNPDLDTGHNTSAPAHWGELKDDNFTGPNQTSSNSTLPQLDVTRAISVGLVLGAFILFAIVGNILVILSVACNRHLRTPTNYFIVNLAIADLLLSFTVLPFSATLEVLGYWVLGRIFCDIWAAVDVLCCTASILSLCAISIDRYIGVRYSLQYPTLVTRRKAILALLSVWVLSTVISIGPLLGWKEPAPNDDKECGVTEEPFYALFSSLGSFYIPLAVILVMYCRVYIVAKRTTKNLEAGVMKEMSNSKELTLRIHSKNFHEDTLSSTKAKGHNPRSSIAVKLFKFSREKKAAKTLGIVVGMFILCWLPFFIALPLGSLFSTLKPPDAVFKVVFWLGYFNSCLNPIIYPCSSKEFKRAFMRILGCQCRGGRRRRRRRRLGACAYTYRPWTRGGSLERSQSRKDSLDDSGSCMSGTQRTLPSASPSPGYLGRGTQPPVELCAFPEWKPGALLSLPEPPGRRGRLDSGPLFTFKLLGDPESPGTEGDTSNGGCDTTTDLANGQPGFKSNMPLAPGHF
Kind of series: Radioligand binding, [3H] prazosin displacement, rat liver membranes. As to conditions: read-out: Affinity (Ki) α1B (Rat Liver). Put shortly:
as §1

In series [1] the target is T3, α1A adrenoceptor (prostate) (Rattus norvegicus, UniProt P43140).
T3 construct: from tissue; host or cells: isolated prostate tissue
T3 sequence (P43140 1-466): T1 sequence (P43140 1-466)
Kind of series: In vitro functional assay, isolated prostate, phenylepinephrine contraction. Type of series: cell-based. The settings on record: for Selectivity α1B/α1A / Selectivity α1D/α1A: functional, from pKB; for Kb: rat prostate, phenylepinephrine, read-out: α Adrenoceptor Subtype (pKB) α1A (converted). Summed up:
(§2)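 Rat aorta, spleen and prostate strips from urethane-anaesthetised male Wistar rats in Krebs-Henseleit at 37 °C (95% O2/5% CO2), 2 g or 1 g resting tension, 2 h equilibration. Norepinephrine (aorta) or phenylephrine (spleen, prostate) contraction curves run without and with compound at […]; antagonist affinity given as pKB.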

The target in series [2] is T4, α1B adrenoceptor (spleen) (Rattus norvegicus, UniProt P15823).
T4 construct: Isolated tissues were mounted in organ bath containing Krebs Henseleit buffer; from tissue; host or cells: isolated rat spleen
T4 sequence (P15823 1-515): T2 sequence (P15823 1-515)
Kind of series: In vitro functional assay, isolated spleen, phenylepinephrine contraction. Type of series: cell-based. As to conditions: read-out: α Adrenoceptor Subtype (pKB) α1B (converted). The text has this:
In order to study selectivity of action of these compounds towards different a-adrenoceptor subtypes, the ability of these compounds to antagonise (α1D) prostate (α1A) and spleen (α1B) was studied. Aorta and spleen tissues were isolated from urethane anaesthetized (1.5 g/kg) male wister rats. Isolated tissues were mounted in organ bath containing Krebs Henseleit buffer of the following composition (mM): NaCl 118; KCl 4.7; CaCl2 2.5; MgSO4 7H2O 1.2; NaHCO3 25; KH2PO4 1.2; glucose 11.5. Buffer was maintained at 37° C. and aereated with a mixture of 95% O2 and 5% CO2. A resting tension of 2 g (aorta) or 1 g (spleen and prostate) was applied to tissues. Contractile response was monitored using a force displacement transducer and recorded on chart recorders. Tissues were allowed to equilibrate for 2 hours. At the end of equilibration period, concentration response curves to norepinephrine (aorta) and phenylepinephrine (spleen and prostate) were obtained in the absence and presence of tested compound (at concentration of […]). Antagonist affinity was calculated and expressed as pKB values in Table II.

The next series concerns the target T5, α1D adrenoceptor (aorta) (Rattus norvegicus, UniProt P23944).
T5 construct: Isolated tissues were mounted in organ bath containing Krebs Henseleit buffer; from tissue; host or cells: isolated rat aorta
T5 sequence (P23944 1-561): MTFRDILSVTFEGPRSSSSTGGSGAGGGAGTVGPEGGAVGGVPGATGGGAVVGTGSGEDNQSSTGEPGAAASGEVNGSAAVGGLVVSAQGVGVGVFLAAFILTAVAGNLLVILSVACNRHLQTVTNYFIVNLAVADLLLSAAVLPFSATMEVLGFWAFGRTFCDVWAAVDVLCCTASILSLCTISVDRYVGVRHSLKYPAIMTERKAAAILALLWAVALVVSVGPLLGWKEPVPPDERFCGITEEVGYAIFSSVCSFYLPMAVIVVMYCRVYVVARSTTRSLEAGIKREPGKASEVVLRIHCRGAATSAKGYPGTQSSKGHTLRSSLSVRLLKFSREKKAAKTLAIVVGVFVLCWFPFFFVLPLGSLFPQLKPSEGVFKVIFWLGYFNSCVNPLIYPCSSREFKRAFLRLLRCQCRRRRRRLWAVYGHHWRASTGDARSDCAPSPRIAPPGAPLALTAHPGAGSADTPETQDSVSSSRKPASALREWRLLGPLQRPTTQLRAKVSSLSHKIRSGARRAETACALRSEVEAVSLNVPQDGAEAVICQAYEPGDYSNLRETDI
The series is described as follows: In vitro functional assay, isolated aorta, norepinephrine contraction. The settings on record: read-out: α Adrenoceptor Subtype (pKB) α1D (converted). It counts as cell-based. Put shortly:
as §2

Setting [3] is: percent change of phenylephrine response over 24 hours.

As for `CC(=O)OC1C=CCC2C(=O)N(CCCN3CCN(c4ccccc4OC(C)C)CC3)C(=O)C12` (stereo not drawn) (as salt: hydrochloride) [Compound No. 40, 2-[3-{4-(2-Isopropoxyphenyl)piperazin-1-yllpropyl]4-acetoxy-3a,4,7,7a-tetrahydro-1H-isoindole-1,3(2H)-dione hydrochloride], the melting point (as a rule, the temperature of the solid-liquid transition) lay in the range of 224 to 227 °C.

`CCOc1ccccc1OCCN[C@H](C)Cc1ccc(OC)c(S(N)(=O)=O)c1` (racemic) [Tamsulosin (SR), Tamsulosin, reference compound]: in the series with conscious beagle dogs, the “Uroselectivity Ratio IUP/MAP” value stood at 1.47. In the series on conscious beagle dogs (setting [3]), the “Area Under Curve IUP” value is 592 and the “Area Under Curve MAP” value was determined as 868.

The compound `CC(C)Oc1ccccc1N1CCN(CCCN2C(=O)C3CC=CC(O)C3C2=O)CC1.Cl` (stereo not drawn) [Compound No. 41, 2-[3-{4-(2-Isopropoxyphenyl)piperazin-1-yl}propyl]-4-hydroxy-3a,4,7,7a-tetrahydro-1H-isoindole-1,3(2H)-dione hydrochloride] came in with a melting point of 186 to 190 °C. Further, on α1A adrenoceptor, the Ki (as a rule, the dissociation constant of the complex between target and ligand, obtained from inhibition or displacement) came out at 0.3 nM; the α1B/α1A is on record as 350. Moreover, at α1B adrenoceptor, the Ki is 105 nM. In series [1], the “Selectivity α1B/α1A” value came to 132, the “Selectivity α1D/α1A” value is listed as 4.8 and the Kb was 0.513 nM. In addition, the Kb in series [2] is 67.6 nM. Further, at α1D adrenoceptor (aorta), the Kb was 2.45 nM.

As for `CC(=O)OC1C=CC(OC(C)=O)C2C(=O)N(CCCN3CCN(c4ccccc4OC(C)C)CC3)C(=O)C12.Cl` (stereo not drawn) [Compound No. 73, 2-[3-{4-(2-Isopropoxyphenyl)piperazin-1-yl}propyl]-4,7-diacetoxy-3a,4,7,7a-tetrahydro-1H-isoindole-1,3(2H)-dione hydrochloride], the melting point lay in the range of 176 to 177 °C. Further, at α1A adrenoceptor, the Ki turned out to be 8.45 nM and the α1B/α1A came to 23. For the same compound, the Ki on α1B adrenoceptor is 192 nM.

`O=C1CCCC(=O)N1CCCN1CCN(c2ccccc2OCC(F)(F)F)CC1` [compound 03]: the Ki was 0.26 nM at α1A adrenoceptor and 47 nM on α1B adrenoceptor. Also, the α1B/α1A at α1A adrenoceptor is given as 181. The “Selectivity α1B/α1A” value in series [1] is on record as 0.7. Also, the “Selectivity α1D/α1A” value in series [1] came to 0.38. Moreover, the Kb is 0.389 nM in series [1], 0.275 nM in series [2] and 0.148 nM on α1D adrenoceptor (aorta).

The compound `CCOc1ccccc1N1CC[N+]([O-])(CCCN2C(=O)C3CC=CCC3C2=O)CC1` (stereo not drawn) [compound 04, 2-[3-{4-(2-Ethoxyphenyl)piperazin-1-yl, 1-N-oxide}propyl]-3a,4,7,7a-tetrahydro-1H-isoindole-1,3(2H)-dione] displayed a melting point of 75 to 80 °C. On α1A adrenoceptor, the Ki was determined as 22 nM and the α1B/α1A was more than 45. In addition, the Ki at α1B adrenoceptor was more than 1000 nM. In addition, in series [1], the “Selectivity α1B/α1A” value was 2.9, the “Selectivity α1D/α1A” value came out at 33 and the Kb was 2.45 nM. Moreover, in series [2], the Kb was 7.08 nM. The Kb at α1D adrenoceptor (aorta) was 81.3 nM.

As for `CC(C)Oc1ccccc1N1CCN(CC(O)CN2C(=O)C3CC=CCC3C2=O)CC1.Cl` (stereo not drawn) [compound 07, 2-[3-{4-(2-Isopropoxyphenyl)piperazin-1-yl}-2-hydroxypropyl]-3a,4,7,7a-tetrahydro-1H-isoindole-1,3(2H)-dione hydrochloride], on α1A adrenoceptor, the Ki was determined as 0.56 nM and the α1B/α1A was determined as 189. Also, the Ki at α1B adrenoceptor was found to be 106 nM. Further, in series [1], the “Selectivity α1B/α1A” value stood at 13, the “Selectivity α1D/α1A” value turned out to be 1.9 and the Kb is 1.23 nM. Besides, the Kb in series [2] was 15.8 nM. For the same compound, the Kb at α1D adrenoceptor (aorta) was 2.29 nM.

As to `CC(C)Oc1ccccc1N1CC[N+]([O-])(CCCN2C(=O)C3CC=CCC3C2=O)CC1` (stereo not drawn) [compound 08, 2-[3-{4-(2-Isopropoxyphenyl)piperazin-1-yl, 1-N-oxide}propyl]-3a,4,7,7a-tetrahydro-1H-isoindole-1,3(2H)-dione], at α1A adrenoceptor, the Ki was 6.6 nM and the α1B/α1A turned out to be 722. For the same compound, the Ki on α1B adrenoceptor came out at 4770 nM. For the same compound, in series [1], the “Selectivity α1B/α1A” value is listed as 0.24, the “Selectivity α1D/α1A” value is 5.24 and the Kb is 4.17 nM. Moreover, the Kb in series [2] was 1.02 nM. Besides, the Kb on α1D adrenoceptor (aorta) is 21.9 nM.

On to `CC(C)Oc1ccccc1[N+]1([O-])CC[N+]([O-])(CCCN2C(=O)C3CC=CCC3C2=O)CC1` (stereo not drawn) [compound 09, 2-[3-{4-(2-Isopropoxyphenyl)piperazin-1-yl, 1,4-N,N-dioxide}propyl]-3a,4,7,7a-tetrahydro-1H-isoindole-1,3-(2H)-dione], for which the Ki at α1A adrenoceptor was 1070 nM; on α1B adrenoceptor it was more than 1000 nM. For the same compound, the “Selectivity α1B/α1A” value in series [1] was 3.3. Besides, the “Selectivity α1D/α1A” value in series [1] came to 14. In addition, the figures for the Kb (in series [1]; in series [2]; on α1D adrenoceptor (aorta)) were 7.08 nM, 23.4 nM and 100 nM, respectively.
